Among the data in patent US5618948A, “Process for preparing an enantiomer of a carbazole derivative” (SmithKline Beecham p.l.c., priority 1995, dated 1997) are EC50 values, retold here.

The term EC50 denotes the concentration at which the effect is half-maximal.

T1 sequence (P49144 whole entry): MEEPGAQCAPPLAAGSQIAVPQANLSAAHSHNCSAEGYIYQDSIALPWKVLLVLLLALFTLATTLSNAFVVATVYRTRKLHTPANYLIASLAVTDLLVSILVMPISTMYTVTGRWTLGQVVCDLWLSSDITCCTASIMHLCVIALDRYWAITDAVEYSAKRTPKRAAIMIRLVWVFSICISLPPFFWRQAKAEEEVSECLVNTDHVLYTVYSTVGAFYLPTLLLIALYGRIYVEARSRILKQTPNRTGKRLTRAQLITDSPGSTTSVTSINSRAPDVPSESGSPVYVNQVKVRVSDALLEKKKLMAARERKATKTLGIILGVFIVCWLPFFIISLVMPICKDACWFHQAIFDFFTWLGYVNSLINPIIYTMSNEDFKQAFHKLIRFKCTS

This experiment has as its target T1, 5-HT1 -like Receptor (Oryctolagus cuniculus, UniProt P49144).
T1 construct: the basilar artery removed with the aid of a dissecting microscope; from tissue; host or cells: rabbit basilar artery ring segments, endothelium removed
Nature of the experiment: 5-HT1-like Receptor Screen, rabbit isolated basilar artery (isometric tension, cumulative concentration-effect curves). It is filed as cell-based. Conditions: endothelium removed, in presence of ascorbate, indomethacin, cocaine, ketanserin and prazosin. As for the experimental part:
5-HT1 -like Receptor Screen
Experiments were performed in intracranial arteries from rabbit isolated basilar artery in a similar method to that described previously (Parsons and Whalley, 1989, Eur J Pharmacol 174, 189-196.)
In brief, rabbits were killed by overdose with anaesthetic (sodium pentobarbitone). The whole brain was quickly removed and immersed in ice cold modified Kreb's solution and the basilar artery removed with the aid of a dissecting microscope. The Krebs solution was of the following composition (mM) Na^+ (120); K^+ (5); Ca^2+ (2.25)Mg^2+(0.5); Cl^- (98.5); SO4^2- (1); ETDA (0.04), equilibrated with 95% O2 /5% CO2. The endothelium was removed by a gentle rubbing of the lumen with a fine metal wire. Arteries were then cut into ring segments (ca 4-5 mm wide) and set up for recording of isometric tension in 50 ml tissue baths in modified Krebs solution with the additional supplement of (mM); […] (20); fumarate (10); pyruvate (5); L-glutamate (5) and glucose (10). The arteries were then placed under a resting force of 3-4 mN maintained at 37° C. and the solution bubbled with 95% O2 /5% CO2.
After tests for initial reactivity with 90 mM KCl depolarising solution and for lack of acetylcholine-induced relaxation of 5-HT ([…]) precontraction, cumulative concentration-effect curves ([…]) to 5-HT were constructed in the presence of ascorbate […], cocaine […], indomethacin […], ketanserin […] and prazosin […].
Following a 45-60 min wash period, cumulative concentration-effect curves to the test compounds or 5-HT (as a time match control) were constructed in the presence of ascorbate, indomethacin, cocaine, ketanserin and prazosin.
R-(+)-6-carboxamido-3-N-methylamino-1,2,3,4-tetrahydrocarbazole; (compound A)
S-(-)-6-carboxamido-3-N-methylamino-1,2,3,4-tetrahydrocarbazole; (compound B)
R-(+)-6-carboxamido-3-N-ethylamino-1,2,3,4-tetrahydrocarbazole; (compound C)
For the compound `CN[C@@H]1CCc2[nH]c3ccc(C(N)=O)cc3c2C1` [Compound A, R-(+)-6-carboxamido-3-N-methylamino-1,2,3,4-tetrahydrocarbazole], the EC50 amounted to 30 nM.

Consider `CN[C@H]1CCc2[nH]c3ccc(C(N)=O)cc3c2C1` [Compound B, S-(-)-6-carboxamido-3-N-methylamino-1,2,3,4-tetrahydrocarbazole], for which the concentration for a half-maximal effect (EC50) is above 2000 nM.

As for `CCN[C@@H]1CCc2[nH]c3ccc(C(N)=O)cc3c2C1` [Compound C, R-(+)-6-carboxamido-3-N-ethylamino-1,2,3,4-tetrahydrocarbazole], the EC50 came out at 160 nM.
